The SangsterLogP compilation

assay: from Draber, W.; Büchel, H.; Dickore, K.; Trebst, A.; Pistorius, E. (1969). Structure-activity correlation of 1,2,4-triazinones, a new group of photosynthesis inhibitors. In: Progress in Photosynthesis …; details: pH 7.0

**Q.** Which logD does the source give for `CSc1nnc(C(C)(C)C)c(=O)n1N` here?
**A.** 1.7

**Q.** For `CC(C)c1nnc(SCC(=O)c2ccccc2)n(N)c1=O`, which logD is on record?
**A.** 2.07

**Q.** Which logD does the source give for `CCCCNc1nnc(C(C)C)c(=O)n1N` here?
**A.** 1.78

**Q.** Which logD does the source give for `CCSc1nnc(C(C)C)c(=O)n1N` here?
**A.** 1.52

**Q.** With `CSc1nncc(=O)n1N` as the compound, how does the logD read?
**A.** 0.38

**Q.** Which logD does the source give for `CCCSc1nnc(C(C)C)c(=O)n1N` here?
**A.** 2.12

**Q.** With `COc1nnc(C(C)C)c(=O)n1N` as the compound, how does the logD read?
**A.** -0.06

**Q.** For `CSc1nnc(-c2ccccc2)c(=O)n1N`, which logD is on record?
**A.** 1.66

**Q.** For `CC(C)c1nnc(N2CCOCC2)n(N)c1=O`, which logD is on record?
**A.** 0.49

**Q.** With `CCc1nnc(SC)n(N)c1=O` as the compound, how does the logD read?
**A.** 0.46

**Q.** For `CCCCCCc1nnc(SC)n(N)c1=O`, which logD is on record?
**A.** 2.68

**Q.** Which logD does the source give for `CNc1nnc(C(C)C)c(=O)n1N` here?
**A.** 0.3

**Q.** For `CC(C)Sc1nnc(C(C)C)c(=O)n1N`, which logD is on record?
**A.** 2.06

**Q.** With `CSc1nnc(C2CCCCO2)c(=O)n1N` (stereo not given) as the compound, how does the logD read?
**A.** 0.38

**Q.** With `CSc1nnc(CCC(C)C)c(=O)n1N` as the compound, how does the logD read?
**A.** 1.85
